This test has as its target T1, TcyK (Listeria monocytogenes, UniProt A0A0H3GMT4).
T1 construct: gene LMRG_01494; residues 38-286, without membrane-anchoring domain; N-terminal His-tag (pET-19b, cleavage not mentioned); codon-optimised, E. coli BL21-Gold(DE3)
As to the kind of experiment: isothermal titration calorimetry. The test is classed as binding.

As usually defined, the Kd is the concentration at which binding is half-saturated.

T1 sequence (A0A0H3GMT4 entry or part of it): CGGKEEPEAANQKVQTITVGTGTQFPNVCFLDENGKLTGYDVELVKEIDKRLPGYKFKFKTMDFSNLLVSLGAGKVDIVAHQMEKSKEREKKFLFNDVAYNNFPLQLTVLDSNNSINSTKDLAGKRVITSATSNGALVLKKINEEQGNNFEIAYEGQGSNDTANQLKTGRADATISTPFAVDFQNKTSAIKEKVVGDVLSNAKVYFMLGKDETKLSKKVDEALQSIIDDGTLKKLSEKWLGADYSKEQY

Consider `N[C@@H](CSSC[C@H](N)C(=O)O)C(=O)O` [CSSC, cystine], for which the Kd is ~13 µM. As to `N[C@@H](CS)C(=O)O` [Cys, L-cysteine], the Kd was ~66.7 µM.

Source of the values: paper PMC9239247, “Listeria monocytogenes TcyKLMN Cystine/Cysteine Transporter Facilitates Glutathione Synthesis and Virulence Gene Expression” (mBio, 2022).
